# Laboratory results published in patent publication US7470715B2, “Estrogen modulators” (Pfizer Inc., priority 2005, dated 2008).
# What was measured:
# [1] = target: ligand binding domain of the estrogen receptor beta chain (ERβLBD) that contained a point mutation at amino acid residue 418 (pm418) (Homo sapiens, UniProt Q92731); assay: ER agonist cell assay (ERβ), Huh-7 co-transfection, luciferase; type: cell-based; details: for EC50: Huh-7 cells co-transfected with pG5luc and ERβLBD(pm418), overnight incubation, luciferase; for ERβ % of Max E2 Response: percent of the maximum estradiol fold change, Huh-7, pG5luc and ERβLBD(pm418)
# Protocol: (§1) The compounds ability to mimic the effects of estrogen on the estrogen receptor were determined in a whole cell assay as described immediately below.
# (§2) Experimental Procedure for ER Agonist Cell Assay
# (§3) • Cell line and plasmids: The human hepatoma cell line Huh-7 was used for co-transfections. Cells were maintained in culture medium and split when they reached 80-90% confluency. Three plasmids were routinely used in the assay. pG5luc contained the firefly luciferase gene and was obtained from Promega. […] Cell Culture Media and Reagents:
# (§4) Culture medium: DMEM (phenol red free), 10% charcoal treated HyClone serum, 1% L-glutamine, and 1% penicillin/streptomycin
# (§5) Transfection medium: DMEM (phenol red free) and 10% charcoal treated HyClone serum
# (§6) Luciferase reagents: Dual-Glo Luciferase Kit (Promega cat #E2980) was used for determination of luciferase activity.
# (§7) Transient transfections were preformed using the lipophilic reagent FuGENE 6 (Roche). Cells were split and seeded at 7.2×10^6/150 cm^2 flask in 20 mL of transfection medium. 5-6 hrs later cells were co-transfected with either pG5luc and ERαLBD or pG5luc and ERβLBD(pm418). Transfected cells grew overnight and were then used the next day.
# (§8) Cells transfected 24 hrs earlier were harvested, counted, and seeded in wells containing compound at a density of 1×10^4 cells/well. […] Cells were incubated overnight at 37° C. and 5% CO2 in the presence of compound. The following day medium was aspirated from the wells and 100 ul of Dual-Glo™ Luciferase Reagent were added to each well. Plates were incubated at room temperature for 20 minutes and firefly luminescence was measured on a luminometer. Next, 50 ul of Dual-Gbo™ Stop & Glo® Reagent were added to each well and after 20 minutes at room temperature the Renilla luminescence was measured on a luminometer. Values from each well were normalized by dividing the firefly luminescence by the Renilla luminescence. Estradiol was used as the standard and run in each assay. The fold induction over background for each compound was compared to the maximum fold induction for estradiol in each assay. […] Those compounds that were not tested, or the data was unavailable are marked as NT.
# [2] = target: T1, ligand binding domain of the estrogen receptor alpha chain (ERαLBD) (Homo sapiens, UniProt P03372); assay: ER agonist cell assay (ERα), Huh-7 co-transfection, luciferase; type: cell-based; details: for EC50: Huh-7 cells co-transfected with pG5luc and ERαLBD, overnight incubation, luciferase; for ERα % of Max E2 Response: percent of the maximum estradiol fold change, Huh-7, pG5luc and ERαLBD
# T1 construct: expressed in transfected cells; host or cells: Huh-7 human hepatoma cells, transient transfection with FuGENE 6
# T1 sequence (P03372 311-547 limits assumed): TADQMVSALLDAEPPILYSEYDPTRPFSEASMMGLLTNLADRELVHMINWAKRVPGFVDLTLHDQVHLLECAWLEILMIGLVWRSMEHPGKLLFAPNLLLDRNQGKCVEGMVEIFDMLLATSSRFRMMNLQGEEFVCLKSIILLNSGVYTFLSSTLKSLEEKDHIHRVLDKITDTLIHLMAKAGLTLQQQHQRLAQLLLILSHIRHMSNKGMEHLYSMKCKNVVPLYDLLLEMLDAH
# Protocol: as §1, §2, §3, §4, §5, §6, §7, §8
SMILES,EC50 [1] [nM],ERβ % of Max E2 Response [1] [%],EC50 [2] [nM],ERα % of Max E2 Response [2] [%]
"N#CCC1(c2onc(-c3ccc(O)cc3)c2-c2ccccc2)CC1 [Example 42, {1-[3-(4-Hydroxy-phenyl)-4-phenyl-isoxazol-5-yl]-cyclopropyl}-acetonitrile]",198,6.17,37.7,51.7
Cc1noc(C)c1C(=O)OCC1(c2onc(-c3ccc(O)cc3)c2-c2ccccc2)CC1 [Example 56],30.6,3,11.1,42.1
"COc1ncccc1OCC1(c2onc(-c3ccc(O)cc3)c2-c2ccccc2)CC1 [Example 13, 4-{5-[1-(2-Methoxy-pyridin-3-yloxymethyl)-cyclopropyl]-4-phenyl-isoxazol-3-yl}-phenol]",–,0.552,–,19
"O=C(OCc1ccccc1)C1(c2onc(-c3ccc(O)cc3)c2-c2ccccc2)CC1 [Example 92, 1-[3-(4-Hydroxy-phenyl)-4-phenyl-isoxazol-5-yl]-cyclopropanecarboxylic acid benzyl ester]",> 10000,>1.04,57.2,19.7
CC(C)CC(=O)OCC1(c2onc(-c3ccc(O)cc3)c2-c2ccccc2)CC1 [Example 55],23.6,32.6,5.7,55.8
"CCOc1ccc(-c2nnc(C3(c4onc(-c5ccc(O)cc5)c4-c4ccccc4)CC3)o2)cc1 [Example 119, 4-(5-{1-[5-(4-ethoxyphenyl)-1,3,4-oxadiazol-2-yl]cyclopropyl}-4-phenylisoxazol-3-yl)phenol]",> 10000,>3.74,469,22.3
"Oc1ccc(-c2noc(C3(c4nnc(-c5ccc(O)cc5O)o4)CC3)c2-c2ccccc2)cc1 [Example 118, 4-(5-{1-[3-(4-hydroxyphenyl)-4-phenylisoxazol-5-yl]cyclopropyl}-1,3,4-oxadiazol-2-yl)benzene-1,3-diol]",> 10000,>0.789,25.1,15
"COc1cccc(F)c1OCC1(c2onc(-c3ccc(O)cc3)c2-c2ccccc2)CC1 [Example 7, 4-{5-[1-(2-Fluoro-6-methoxy-phenoxymethyl)-cyclopropyl]-4-phenyl-isoxazol-3-yl}-phenol]",> 10000,>0.485,208,17.2
"CC[C@@H](NCC1(c2onc(-c3ccc(O)cc3)c2-c2ccccc2)CC1)c1ccccc1 [Example 26, 4-[4-Phenyl-5-(1-{[(1R)-1-phenyl-propylamino]-methyl}-cyclopropyl)-isoxazol-3-yl]-phenol]",–,1.03,66,20.9
"COCCOC(=O)C1(c2onc(-c3ccc(O)cc3)c2-c2ccccc2)CC1 [Example 88, 1-[3-(4-Hydroxy-phenyl)-4-phenyl-isoxazol-5-yl]-cyclopropanecarboxylic acid 2-methoxy-ethyl ester]",> 10000,>3.41,29.4,29.2
"COCOCC1(c2onc(-c3ccc(O)cc3)c2-c2ccccc2)CC1 [Example 10, 4-[5-(1-Methoxymethoxymethyl-cyclopropyl)-4-phenyl-isoxazol-3-yl]-phenol]",197,1.18,17.7,15.1
"Oc1ccc(-c2noc(C3(c4nnc(-c5cccc(O)c5)o4)CC3)c2-c2ccccc2)cc1 [Example 125, 3-(5-{1-[3-(4-hydroxyphenyl)-4-phenylisoxazol-5-yl]cyclopropyl}-1,3,4-oxadiazol-2-yl)phenol]",> 10000,>0.535,419,22.1
"CC(C)(C)COC(=O)C1(c2onc(-c3ccc(O)cc3)c2-c2ccccc2)CC1 [Example 93, 1-[3-(4-Hydroxy-phenyl)-4-phenyl-isoxazol-5-yl]-cyclopropanecarboxylic acid 2,2-dimethyl-propyl ester]",> 10000,>0.813,33.8,20.4
"Oc1ccc(-c2noc(C3(C(O)C4CC4)CC3)c2-c2ccccc2)cc1 (racemic) [Example 14, (±)-4-{5-[1-(Cyclopropyl-hydroxy-methyl)-cyclopropyl]-4-phenyl-isoxazol-3-yl}-phenol]",136,17.7,43,45.4
"OCC1(c2onc(-c3ccc(O)c(F)c3)c2-c2ccccc2)CC1 [Example 98, 2-Fluoro-4-[5-(1-hydroxymethyl-cyclopropyl)-4-phenyl-isoxazol-3-yl]-phenol]",799,36.8,985,46
CCCC(=O)OCC1(c2onc(-c3ccc(O)cc3)c2-c2ccccc2)CC1 [Example 58],97.9,92,137,59.9
"Cc1ncccc1OCC1(c2onc(-c3ccc(O)cc3)c2-c2ccccc2)CC1 [Example 12, 4-{5-[1-(2-Methyl-pyridin-3-yloxymethyl)-cyclopropyl]-4-phenyl-isoxazol-3-yl}-phenol]",–,0.577,354,26.2
"COc1ccc(-c2nnc(C3(c4onc(-c5ccc(O)cc5)c4-c4ccccc4)CC3)o2)cc1 [Example 129, 4-(5-{1-[5-(4-methoxyphenyl)-1,3,4-oxadiazol-2-yl]cyclopropyl}-4-phenylisoxazol-3-yl)phenol]",> 10000,0.625,≥ 10000,19.1
CCC(=O)OCC1(c2onc(-c3ccc(O)cc3)c2-c2ccccc2)CC1 [Example 57],137,112,245,71.9
"COc1cccc(-c2nnc(C3(c4onc(-c5ccc(O)cc5)c4-c4ccccc4)CC3)o2)c1 [Example 123, 4-(5-{1-[5-(3-methoxyphenyl)-1,3,4-oxadiazol-2-yl]cyclopropyl}-4-phenylisoxazol-3-yl)phenol]",> 10000,>0.658,46.9,35.9
"Oc1ccc(-c2noc(C3(c4nnc(-c5ccccc5O)o4)CC3)c2-c2ccccc2)cc1 [Example 122, 2-(5-{1-[3-(4-hydroxyphenyl)-4-phenylisoxazol-5-yl]cyclopropyl}-1,3,4-oxadiazol-2-yl)phenol]",> 10000,>0.756,71.5,21.9
